# From ChEMBL document CHEMBL1681656, “Design and synthesis of AApeptides: a new class of peptide mimics” (Bioorg Med Chem Lett, 2011)
# Experiments:
# [1] = Inhibition of GST-MDM2/His6-p53 interaction expressed in Escherichia coli after 1 hr by ELISA
# [2] = Chemical stability of the compound assessed as enzymatic hydrolysis in ammonium bicarbonate buffer at pH 7.8 after 24 hrs in presence of pronase; format: physicochemical; details: pH 7.8, 24 h
# [3] = Chemical stability of the compound assessed as enzymatic hydrolysis in ammonium bicarbonate buffer at pH 7.8 after 24 hrs in presence of trypsin; format: physicochemical; details: isolated protein, pH 7.8, 24 h
# [4] = Chemical stability of the compound assessed as enzymatic hydrolysis in ammonium bicarbonate buffer at pH 7.8 after 24 hrs in presence of chymotrypsin; format: physicochemical; details: isolated protein, pH 7.8, 24 h
IC50 [1] [µM],Stability [2],Stability [3],Stability [4],Compound
38,,,,CCC(=O)N(CCNC(=O)[C@H](CC(C)C)N(CCNC(=O)[C@H](Cc1c[nH]c2ccccc12)N(CCNC(=O)[C@H](Cc1ccccc1)N(CCNC(=O)[C@H](C)N(CCN)C(=O)CC)C(=O)CC)C(=O)CCO)C(=O)CC)[C@@H](C)C(N)=O
120,,,,CCC(=O)N(CCNC(=O)[C@H](CC(C)C)N(CCNC(=O)[C@H](Cc1c[nH]c2ccccc12)N(CCNC(=O)[C@H](Cc1ccccc1)N(CCN)C(=O)CC)C(=O)CCO)C(=O)CC)[C@@H](C)C(N)=O
120,Stable,Stable,Stable,CCC(=O)N(CCNC(=O)[C@H](CC(C)C)N(CCNC(=O)[C@H](Cc1c[nH]c2ccccc12)N(CCNC(=O)[C@H](Cc1ccccc1)N(CCNC(=O)[C@H](C)N(CCN)C(=O)CC)C(=O)CC)C(=O)CCO)C(=O)CCc1ccccc1)[C@@H](C)C(N)=O

# Second part, the compound before the results:
Compound,IC50 [1] [µM],Stability [2],Stability [3],Stability [4]
CC(=O)N[C@@H](CCC(N)=O)C(=O)N[C@@H](CCC(=O)O)C(=O)N[C@H](C(=O)N[C@@H](Cc1ccccc1)C(=O)N[C@@H](CO)C(=O)N[C@@H](CC(=O)O)C(=O)N[C@@H](CC(C)C)C(=O)N[C@@H](Cc1c[nH]c2ccccc12)C(=O)N[C@@H](CCCCN)C(=O)N[C@@H](CC(C)C)C(=O)N[C@@H](CC(C)C)C(=O)N1CCC[C@H]1C(=O)O)[C@@H](C)O,8.7,,,
CCC(=O)N(CCNC(=O)[C@H](Cc1c[nH]c2ccccc12)N(CCNC(=O)[C@H](Cc1ccccc1)N(CCNC(=O)[C@H](C)N(CCN)C(=O)CC(C)C)C(=O)CC)C(=O)CCO)[C@H](C(N)=O)C(C)C,> 1000,,,
